According to patent publication US20230248706A1, “METHODS AND COMPOSITIONS FOR THE TREATMENT OF COVID-19 AND ASSOCIATED RESPIRATORY DISTRESS AND MULTI-ORGAN FAILURE, SEPSIS, ACUTE RESPIRATORY DISTRESS SYNDROME, AND CARDIOVASCULAR DISEASES” (priority 2020, published 2023):

Tests used:
IL-6 = experiment: Quantitative RT-PCR of IL-6 expression in lung after LPS challenge; type: in vivo, mouse
Procedure: (§1) Molecular analysis. Total RNA was isolated using an RNeasy Mini kit including DNase I digestion (Qiagen, Valencia, Calif.). Following reverse transcription, quantitative RT-PCR analysis was performed using a sequence detection system (ABI ViiA 7 system; Life Technologies, Grand Island, N.Y.). The following primers sets were used for analysis: mouse FoxM1 primers, 5′-[…]-3′ (SEQ ID NO: 1) and 5′-[…]-3′ (SEQ ID NO: 2); mouse cyclophilin primers, 5′-[…]-3′ (SEQ ID NO: 3) and 5′-[…]-3′ (SEQ ID NO: 4). Primers for mouse Cdc25c, Ccna2, Ccnb1, Tnf, Il6, Nos2, and Icam1 were purchased from Qiagen. The mouse gene expression was normalized to cyclophilin.

[1] = system: human lung microvascular ECs (HLMVECs); experiment: Apoptosis (TUNEL) in senescent HLMVECs treated with TNF-α/CHX; details: senescent HLMVECs at passage 16
From the text: (§3) (D) Quantification of ROS production. (E) Representative micrographs of TUNEL staining (green) of human lung ECs.
(§4) To further understand the pathogenic role of aging-induced NOX2 in promoting inflammatory lung injury in aged mice, we cultured human lung microvascular ECs (HLMVECs) and passaged many times.

[2] = system: human lung microvascular ECs (HLMVECs); experiment: ROS production (DCF staining) in senescent HLMVECs treated with TNF-α/CHX; details: senescent HLMVECs at passage 16, TNF-α and Cycloheximide (CHX) treatment
From the text: as §3, §4

LPS-challenged mice [3] = experiment: Lung myeloperoxidase (MPO) activity after LPS challenge; type: in vivo, mouse
Procedure: (§2) To induce endotoxemia, mice received a single dose of LPS (0.25-2.5 mg/kg BW, Escherichia coli 055:B5, Santa Cruz, St. Dallas, Tex.) by i.p. injection. The LPS dose was dependent on the aging of the mice (3-9 mo old, 2.5 mg/kg; 19-21 mo. old, 1.0 mg/kg; 25 mo. old, 0.25 mg/kg). All mice were anesthetized with ketamine/xylazine (100/5 mg/kg BW, i.p.) prior to tissue collection. For the survival study, mice were treated with a single dose of LPS (1.5 mg/kg, i.p.) and monitored for 7 days.
Myeloperoxidase assay. Following perfusion free of blood, lung tissues were collected and homogenized in 50 mmol/L phosphate buffer. Homogenates were centrifuged at 15,000×g for 20 minutes at 4° C. The pellets were resuspended in phosphate buffer containing 0.5% hexadecyl trimethylammonium bromide and subjected to a cycle of freezing and thawing. Subsequently, the pellets were homogenized and the homogenates were centrifuged again. Absorbance was measured at 460 nm every 15 secs for 3 minutes and data expressed as ΔOD460/min/g lung tissue (26, 34).

pro-inflammatory genes = type: in vivo, mouse; details: aged mice (21 mo. old), 25 mg/kg oral at 24h post-LPS (FIG. 13 legend)
Procedure: as §1

LPS-challenged mice [4] = experiment: EBA extravasation assay (lung vascular permeability) after LPS challenge; type: in vivo, mouse; details: for vascular repair (EBA flux): 72h post-LPS; for vascular repair (EBA assay): 96h post-LPS
Procedure: as §2
Vascular permeability assessment. The Evans blue dye-conjugated albumin (EBA) extravasation assay was performed as previously described (26, 34). Briefly, mice were retro-orbitally injected with EBA at a dose of 20 mg/kg BW at 30 minutes prior to tissue collection. Lungs were perfused free of blood with PBS, blotted dry and weighed. Next, lung tissues were homogenized in 1 ml PBS and incubated with 2 volumes of formamide at 60° C. for 18 hours. The homogenates were then centrifuged at 10,000×g for 30 minutes. The optical density of the supernatant was determined at 620 nm and 740 nm. The extravasated EBA in lung homogenate was presented as μg of Evans blue dye per g lung tissue.

FoxM1 = experiment: Quantitative RT-PCR of FoxM1 expression in lung after LPS challenge; type: in vivo, mouse
Procedure: as §1

LPS-challenged mice [5] = experiment: Survival after LPS challenge; type: in vivo, mouse; details: LPS 1.5 mg/kg i.p., treated at 24 and 48h post-LPS
Procedure: To induce endotoxemia, mice received a single dose of LPS (0.25-2.5 mg/kg BW, Escherichia coli 055:B5, Santa Cruz, St. Dallas, Tex.) by i.p. injection. […] All mice were anesthetized with ketamine/xylazine (100/5 mg/kg BW, i.p.) prior to tissue collection. […]

pulmonary vascular ECs = experiment: In vivo BrdU labeling of lung endothelial cell proliferation; parameters: species or system mouse; details: aged mice, treated at 24 and 48h post-LPS
Procedure: Cell proliferation. At 8 h prior to tissue collection, BrdU (Sigma-Aldrich, St Louis, Mo.) was injected i.p. into mice at 50 mg/kg BW. Mouse lung cryosections were stained overnight with anti-BrdU (1:3, BD Biosciences, San Jose, Calif.) and incubated with Alexa Fluo 488-conjugated secondary antibody (1:200, Life Technologies, Grand Island, N.Y.). Lung vascular ECs were immunostained with anti-vWF (1:300, Sigma-Aldrich, St Louis, Mo.) and anti-CD31 (1:100, BD Biosciences, San Jose, Calif.) antibodies at 4° C. then the sections were incubated with Alexa Fluor 594-conjugated secondary antibodies (1:200, Life Technologies, Grand Island, N.Y.). The nuclei were counterstained with DAPI (Life Technologies, Grand Island, N.Y.). Three consecutive cryosections from each mouse lung were examined, the average number of BrdU+ nuclei was used (24, 34).

young adult mice = details: 1 mg/kg i.p., young adult mice (8-10 weeks old), previous study; cited from earlier work
Cdc25c, Ccna2, and Ccnb1 = experiment: Quantitative RT-PCR of FoxM1 target genes essential for cell cycle progression in lung; type: in vivo, mouse; details: aged mice, treated at 24 and 48h post-LPS
Procedure: as §1

HIF-response element = experiment: High-throughput screening of Prestwick library in stable cell line containing the HIF-response element; type: cell-based; details: Prestwick Chemical Library of FDA-approved drugs (1280 compounds)
[6] = cited from earlier work
p53 = details: in response to DNA damaging agents; cited from earlier work
HDAC = details: cited from earlier work
NADase = details: cited from earlier work
TNF-α = experiment: Quantitative RT-PCR of TNF-α expression in lung after LPS challenge; type: in vivo, mouse; details: aged mice (21 mo. old), DMOG at 12 or 24h post-LPS, 72h post-LPS
Procedure: as §1

[7] = aged mice (21.5 mos. old), LPS 2 mg/kg i.p., 120 mg/kg oral at 2 h post-LPS, 24h post-LPS
[8] = aged mice (21 mo. old), LPS 0.5 mg/kg i.p., 25 mg/kg oral at 24h post-LPS, 72h post-LPS
[9] = young adult mice (3-5 mo. old), LPS 2.5 mg/kg i.p., 0.25, 0.5, and 5 mg/kg i.p. at 4h post-LPS, 24h post-LPS
[10] = aged WT mice (20 months), 7 mg/kg i.p. at 1 h prior to LPS, 72h post-LPS
[11] = aged mice (21 mo. old), DMOG 8 mg/mouse i.p. at 12 or 24h post-LPS, 72h post-LPS

CC(=O)N[C@@H](CS)C(=O)O [NAC, N-Acetylcysteine]
expression of the proinflammatory gene 116 (IL-6; [7]): reduced to a level similar to young adult mice | TNF-α/CHX treatment-induced cell apoptosis [1]: markedly inhibited | ROS generation [2]: inhibited | MPO activity (LPS-challenged mice [3]; [7]): attenuated

Cc1nc(C(=O)NCC(=O)O)c(O)c2ccc(Oc3ccccc3)cc12 [FG-4592]
pro-inflammatory cytokine expression (pro-inflammatory genes): marked increase | vascular repair (EBA flux) (LPS-challenged mice [4]; aged mice (21 mo. old), LPS 0.5 mg/kg i.p., 25 mg/kg oral at 24h post-LPS): normalized vascular repair | MPO activity (LPS-challenged mice [3]; [8]): inhibited MPO activity | FoxM1 expression (FoxM1; [8]): induced FoxM1 expression

Nc1ncn([C@H]2CC(O)[C@@H](CO)O2)c(=O)n1 (stereo in doubt) [Decitabine, 5-Aza-2′-deoxycytidine]
mice survived (LPS-challenged mice [5]; aged (20-22 mos. old) WT mice, monitored for 96h): 80% | survival of aged Foxm1 KO mice (LPS-challenged mice [5]; aged Foxm1 EC-specific knockout mice): no protective effects | vascular repair (EBA assay) (LPS-challenged mice [4]; aged mice (21-22 mos. old), 0.2 mg/kg i.p. at 24 h and 48h post-LPS): normalized vascular repair | lung EBA flux (LPS-challenged mice [4]; [9]): no effect | vascular repair (EBA assay) (LPS-challenged mice [4]; young adult mice (3 mos. old), 0.2 mg/kg i.p. at 24 and 48h post-LPS): didn't promote | pulmonary vascular EC proliferation (BrdU immunostaining) (pulmonary vascular ECs): drastically increased | lung MPO activity (LPS-challenged mice [3]; aged mice (21-22 mos. old), 0.2 mg/kg i.p. at 24 h and 48h post-LPS, 96h post-LPS): returned to basal levels | lung MPO activity (LPS-challenged mice [3]; [9]): no effect | inflammation resolution (MPO assay) (LPS-challenged mice [3]; young adult mice (3 mos. old), 0.2 mg/kg i.p. at 24 and 48h post-LPS, 96h post-LPS): didn't promote | FoxM1 expression (FoxM1; aged mice, treated at 24 and 48h post-LPS, 72h post-LPS, compared to vehicle-treated mice): markedly induced | effect on sepsis-induced inflammatory lung injury (young adult mice): no effects | expression of FoxM1 target genes essential for cell cycle progression (Cdc25c, Ccna2, and Ccnb1): markedly induced

COCCCOc1ccnc(C[S+]([O-])c2nc3ccccc3[nH]2)c1C (centres unmarked) [Rabeprazole]
drug-induced vascular repair (EBA) in Foxm1 EC KO mice (LPS-challenged mice [4]; Foxm1 EC-specific knockout mice (3-5 mos. old), treated at 6h and 24h post-LPS, 52h post-LPS): inhibited | drug-induced vascular repair (EBA) in Hif1a KO mice (LPS-challenged mice [4]; Hif1a EC-specific knockout mice (4 mos. old), treated at 6h and 24h post-LPS, 52h post-LPS): inhibited | MPO activity (LPS-challenged mice [3]; aged mice (22 mo. old), LPS 1.5 mg/kg i.p., treated at 6h and 24h post-LPS, 72h post-LPS): returned to levels seen in basal mice | increase of FoxM1 expression compared to either basal or LPS-treated mice (FoxM1; aged mice (22 mo. old), treated at 6h and 24h post-LPS, 72h post-LPS): 3-6 fold | increase of FoxM1 expression compared to either basal or LPS-treated mice (FoxM1; young adult mice 3-5 mos. old, 18 mg/kg oral at 6h and 24h post-LPS, 56h post-LPS): 3 fold | HIF activation in library screen (HIF-response element): activators

Oc1ccc(/C=C/c2cc(O)cc(O)c2)cc1 [Resveratrol, trans-E-resveratrol]
solubility [6]: poor solubility

NC(=O)C1CCCc2c1[nH]c1ccc(Cl)cc21 (centres unmarked) [Selisistat]
p53 acetylation (p53): Enhances | lung MPO activity (LPS-challenged mice [3]; [10]): returned to basal levels | FoxM1 expression (FoxM1; [10]): reactivated FoxM1 expression | IC50 (HDAC): > 100 µM | IC50 (NADase): > 100 µM

COC(=O)CNC(=O)C(=O)OC [DMOG, dimethyoxalylglycine]
expression of IL-6 (IL-6; aged mice (21 mo. old), DMOG at 12 or 24h post-LPS, 72h post-LPS): markedly reduced | MPO activity (LPS-challenged mice [3]; [11]): returned to basal levels | increase of FoxM1 expression compared to either basal or non-treated mice (FoxM1; [11]): 3 fold | expression of TNF-α (TNF-α): markedly reduced

Cl.Nc1ccc(/N=N/c2ccccc2)c(N)n1 [Phenazopyridine]
vascular repair (EBA flux) (LPS-challenged mice [4]; aged mice (22 mo. old), LPS 1.5 mg/kg i.p., treated at 6h and 24h post-LPS): promote vascular repair | HIF activation in library screen (HIF-response element): activators
